Source: patent US20250295628A1 (priority 2022, published 2025)

Legend:
[1] = Acute toxicity in beagles (Example 16); format: in vivo; conditions: both sexes, beagle, dog, in vivo, 2 g/kg, single intravenous injection, read-out: dog MTD, injected
From the text: (§1) Ordinary grade beagles 8˜10 kg, 70 males and 70 females, were divided into 7 groups, 10 males and 10 females in each group. Beagles in group 1 were intravenous injected with 2 g/kg of D3; beagles in group 2 were intravenous injected with 2 g/kg of composition 3; beagles in group 3 were intravenous injected with 2 g/kg of composition 3-powder injection; beagles in group 4 were orally administrated with 5 g/kg of composition 3-enteric-coated granule; beagles in group 5 were orally administrated with 5 g/kg of composition 3-enteric-coated capsule; beagles in group 6 were orally administrated with 5 g/kg of composition 3-enteric-coated sustained-release capsule; group 7 was a blank group. After administration, the poisoning situation was observed every day, and no obvious poisoning reaction was found.

[2] = system: beagles; assay: Acute toxicity in beagles (Example 16); format: in vivo; conditions: intravenous 2 g/kg, observed 14 days
From the text: as §1

[3] = Compatibility stability and pH of 2 mg/ml solutions in normal saline and 5% glucose injection at room temperature (Example 15); format: physicochemical; conditions: for main component content in solution: 2 mg/ml, room temperature
[4] = system: chronic cadmium poisoning model rabbits; assay: Cadmium-removing effect by intravenous drip in chronic cadmium poisoning rabbits (Example 18); format: in vivo, New Zealand rabbits; conditions: for Urine β2-microglobulin values: after four weeks of administration
From the text: 205 male New Zealand rabbits, 1.8˜2.2 kg, were randomly divided into a blank control group with 25 rabbits and chronic cadmium poisoning groups with a total of 180 rabbits. The model rabbits were ear margin intravenous injected with a mixed solution containing 1.5 μmol/kg CdCl2 and 30 μmol/kg thioethanol (ME) according to weight, once/d for continuous 5 days, and observed for 35 days. After 35 days, qualified rabbits were selected according to weight, including 18 rabbits in the blank group and 162 rabbits in the poisoning group. The 162 rabbits in the poisoning group were randomly divided into a model group, D3 high-dose group, D3 low-dose group, compound 3B high-dose group, compound 3B low-dose group, composition 3 high-dose group, composition 3 low-dose group, composition 3-powder injection high-dose group, composition 3-powder injection low-dose group, with 18 rabbits in each group. Rabbits in the mode group and the blank group were administered by intravenous drip with the same volume of normal saline, with a rate of 30 drops/min for a dripping time of about 2 h, 1 time/d, 5 d/week. After administration on the last day of week 1, week 2 and week 4, the urine of 0 h˜6 h and the urine of 7 h˜24 h of rabbits were respectively collected; the content of cadmium in blood, urine and kidney, and the cadmium-removing rate from blood and kidney were determined, and the results are shown in Table 6.

[5] = Solid stability: main component content over time under storage conditions (Example 15); format: physicochemical
[6] = Acute toxicity in SD rats (Example 16); format: in vivo; conditions: both sexes, rat, in vivo, 3 g/kg, single intravenous injection, read-out: rat MTD, injected
From the text: (§2) SPF-grade SD rats, 180˜220 g, 70 males and 70 females, were divided into 7 groups, 10 males and 10 females in each group. Rats in group 1 were intravenous injected with 3 g/kg of D3; rats in group 2 were intravenous injected with 3 g/kg of composition 3; rats in group 3 were intravenous injected with 3 g/kg of composition 3-powder injection; rats in group 4 were orally administrated with 5 g/kg of composition 3-enteric-coated granule; rats in group 5 were orally administrated with 5 g/kg of composition 3-enteric-coated capsule; rats in group 6 were orally administrated with 5 g/kg of composition 3-enteric-coated sustained-release capsule; group 7 was a blank group. After administration, the poisoning situation was observed every day, and no obvious poisoning reaction was found.

[7] = system: SD rats; assay: Acute toxicity in SD rats (Example 16); format: in vivo; conditions: intravenous 3 g/kg, observed 14 days
From the text: as §2

[8] = Solid stability of compositions 1-11 and compounds 1A-11A: main component content over time under different conditions (Example 37, Table 32); format: physicochemical
Description: Compositions 1-11 and compounds 1A-11A were placed at environments of −25° C., 5±3° C., 25±2° C./60±5% RH, 40±2° C./75±5% RH, 60° C. for 0 d, 5 d and 10 d (d refers to day), respectively, and changes of the main component content (the main component content of 0 day was converted to 100%) were measured, the results are shown in Table 32.

[9] = 1 w of treatment, high-dose group (D3 433, composition 3 and composition 3-preparation 108 mg/kg)
[10] = 1 w of treatment, high-dose group (D3 433, compound 3B 83.5, composition 3 and composition 3-preparation 108 mg/kg)
[11] = 1 w of treatment, low-dose group (D3 108, composition 3 and composition 3-preparation 27 mg/kg)
[12] = 1 w of treatment, low-dose group (D3 108, compound 3B 21, composition 3 and composition 3-preparation 27 mg/kg)
[13] = 2 w of treatment, high-dose group (D3 433, composition 3 and composition 3-preparation 108 mg/kg)
[14] = 2 w of treatment, high-dose group (D3 433, compound 3B 83.5, composition 3 and composition 3-preparation 108 mg/kg)
[15] = 2 w of treatment, low-dose group (D3 108, composition 3 and composition 3-preparation 27 mg/kg)
[16] = 2 w of treatment, low-dose group (D3 108, compound 3B 21, composition 3 and composition 3-preparation 27 mg/kg)
[17] = 4 w of treatment, high-dose group (D3 433, composition 3 and composition 3-preparation 108 mg/kg)
[18] = 4 w of treatment, high-dose group (D3 433, compound 3B 83.5, composition 3 and composition 3-preparation 108 mg/kg)
[19] = 4 w of treatment, low-dose group (D3 108, composition 3 and composition 3-preparation 27 mg/kg)
[20] = 4 w of treatment, low-dose group (D3 108, compound 3B 21, composition 3 and composition 3-preparation 27 mg/kg)

## CSCCC(C(=O)[O-])N(CC(O)C(O)C(O)C(O)CO)C(=S)[S][Na].[Na+] [Composition D3, N-(2,3,4,5,6-pentahydroxyhexyl)-(N-disubstitutedsodium formate)-L-sodium methionate]
[1]
  MTD at 14 d: > 2000 mg/kg
[2]
  acute toxicity observation: no obvious toxicity
[3]; 2 mg/ml solution in 5% glucose injection
  pH: 9.7
[3]; 2 mg/ml solution in normal saline
  pH: 9.7
[3]; 5% glucose injection, 0 h (converted to 100%)
  main component content in solution: 100%
[3]; 5% glucose injection, 1 h
  main component content in solution: 90%
[3]; 5% glucose injection, 2 h
  main component content in solution: 81%
[3]; 5% glucose injection, 4 h
  main component content in solution: 69%
[3]; 5% glucose injection, 8 h
  main component content in solution: 54%
[3]; normal saline, 0 h (converted to 100%)
  main component content in solution: 100%
[3]; normal saline, 1 h
  main component content in solution: 95%
[3]; normal saline, 2 h
  main component content in solution: 83%
[3]; normal saline, 4 h
  main component content in solution: 73%
[3]; normal saline, 8 h
  main component content in solution: 71%
[4]; [9]
  Removing rate (cadmium in blood): 13.9%
  Removing rate (cadmium in kidney): 47.8%
[4]; [10]
  Cadmium in blood: 89.45 ± 13.31 µg/L
  Cadmium in kidney: 6.53 ± 2.16 µg/L
[4]; [11]
  Removing rate (cadmium in blood): 6.8%
  Removing rate (cadmium in kidney): 39.7%
[4]; [12]
  Cadmium in blood: 96.60 ± 6.31 µg/L
  Cadmium in kidney: 7.42 ± 3.83 µg/L
[4]; [13]
  Removing rate (cadmium in blood): 16.9%
  Removing rate (cadmium in kidney): 77.0%
[4]; [14]
  Cadmium in blood: 61.39 ± 12.47 µg/L
  Cadmium in kidney: 3.36 ± 1.08 µg/L
[4]; [15]
  Removing rate (cadmium in blood): 0.07%
  Removing rate (cadmium in kidney): 54.0%
[4]; [16]
  Cadmium in blood: 68.54 ± 13.39 µg/L
  Cadmium in kidney: 5.92 ± 2.01 µg/L
[4]; [17]
  Removing rate (cadmium in blood): 35.8%
  Removing rate (cadmium in kidney): 91.7%
[4]; [18]
  Cadmium in blood: 17.67 ± 6.84 µg/L
  Cadmium in kidney: 1.85 ± 0.52 µg/L
[4]; [19]
  Removing rate (cadmium in blood): 11.1%
  Removing rate (cadmium in kidney): 75.8%
[4]; [20]
  Cadmium in blood: 24.34 ± 8.38 µg/L
  Cadmium in kidney: 3.93 ± 1.16 µg/L
[4]; high-dose group (D3 433, compound 3B 83.5, composition 3 and composition 3-preparation 108 mg/kg)
  Urine β2-microglobulin values: 161.64 ± 45.18 ng/L
[4]; low-dose group (D3 108, compound 3B 21, composition 3 and composition 3-preparation 27 mg/kg)
  Urine β2-microglobulin values: 197.15 ± 31.66 ng/L
[5]; 5 ± 3° C., 0 d (converted to 100%)
  main component content: 100%
[5]; 5 ± 3° C., 5 d
  main component content: 97.3%
[5]; 5 ± 3° C., 10 d
  main component content: 96.5%
[5]; 5 ± 3° C., 30 d
  main component content: 90.8%
[5]; 5±3° C., 180 d
  decrease of the main component content / stability on 180 d: about 18.8%
  main component content: 81.2%
[5]; 25 ± 2° C./60 ± 5% RH, 0 d (converted to 100%)
  main component content: 100%
[5]; 25 ± 2° C./60 ± 5% RH, 5 d
  main component content: 95.1%
[5]; 25 ± 2° C./60 ± 5% RH, 10 d
  main component content: 90.3%
[5]; 25 ± 2° C./60 ± 5% RH, 30 d
  main component content: 84.6%
[5]; 25 ± 2° C./60 ± 5% RH, 180 d
  main component content: 64.2%
[5]; 40 ± 2° C./75 ± 5% RH, 0 d (converted to 100%)
  main component content: 100%
[5]; 40 ± 2° C./75 ± 5% RH, 5 d
  main component content: 91.2%
[5]; 40 ± 2° C./75 ± 5% RH, 10 d
  main component content: 84.3%
[5]; 40 ± 2° C./75 ± 5% RH, 30 d
  main component content: 60.3%
[5]; −25° C., 0 d (converted to 100%)
  main component content: 100%
[5]; −25° C., 5 d
  main component content: 101.2%
[5]; −25° C., 10 d
  main component content: 99.8%
[5]; −25° C., 30 d
  main component content: 100.7%
[5]; −25° C., 180 d
  main component content: 99.9%
[6]
  MTD at 14 d: > 3000 mg/kg
[7]
  acute toxicity observation: no obvious toxicity
[8]; 5 ± 3° C., 0 d (0 day content converted to 100%)
  main component content: 100%
[8]; 5 ± 3° C., 5 d
  main component content: 97.3%
[8]; 5 ± 3° C., 10 d
  main component content: 96.5%
[8]; 25 ± 2° C./60 ± 5% RH, 0 d (0 day content converted to 100%)
  main component content: 100%
[8]; 25 ± 2° C./60 ± 5% RH, 5 d
  main component content: 95.1%
[8]; 25 ± 2° C./60 ± 5% RH, 10 d
  main component content: 90.3%
[8]; 40 ± 2° C./75 ± 5% RH, 0 d (0 day content converted to 100%)
  main component content: 100%
[8]; 40 ± 2° C./75 ± 5% RH, 5 d
  main component content: 91.2%
[8]; 40 ± 2° C./75 ± 5% RH, 10 d
  main component content: 84.2%
[8]; 60° C., 0 d (0 day content converted to 100%)
  main component content: 100%
[8]; 60° C., 5 d
  main component content: 65.6%
[8]; 60° C., 10 d
  main component content: 64.2%
[8]; −25° C., 0 d (0 day content converted to 100%)
  main component content: 100%
[8]; −25° C., 5 d
  main component content: 101.2%
[8]; −25° C., 10 d
  main component content: 99.8%
